Where a name gives a salt, the structure may show the parent alone. Read-outs that look alike come from different tables or passages of the source. A value given as a limit tells only on which side of the number the result lay.

The target in one experiment is DNMT1 (Homo sapiens, UniProt P26358). In words: DNMT1 biochemical activity, breaklight assay and/or SPA assay.
The subject of experiment [1] is erythroid progenitor cells (EPCs). As to the kind of experiment: Fetal hemoglobin (HbF) ELISA in day 7 erythroid progenitor cells. It is filed as cell-based, human. The settings on record: HbF ELISA, day 7 EPCs, 5 days; for EC50: Homo sapiens, Erythroid progenitor cell, read-out: EPC ELISA (pEC50 category) (converted). The method in brief: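 HbF induction was read by anti-HbF sandwich ELISA (HRP/TMB, OD450) on lysates and normalized to vehicle-treated cells. Cells were day 7 erythroid progenitors derived from human bone marrow CD34+ cells, seeded at 1,000/well with 3 U/mL rhEPO. Compound was given for 5 days at 37 °C at final concentrations […].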

Setting [2] is: binned activity in either the breaklight or the SPA assay.
Setting [3] is: binned activity in either the breaklight or the SPA assay, read-out: DNMT1 BioChemical (pIC50 category) (converted).

Chain of DNMT1 (P26358 whole entry, looked up): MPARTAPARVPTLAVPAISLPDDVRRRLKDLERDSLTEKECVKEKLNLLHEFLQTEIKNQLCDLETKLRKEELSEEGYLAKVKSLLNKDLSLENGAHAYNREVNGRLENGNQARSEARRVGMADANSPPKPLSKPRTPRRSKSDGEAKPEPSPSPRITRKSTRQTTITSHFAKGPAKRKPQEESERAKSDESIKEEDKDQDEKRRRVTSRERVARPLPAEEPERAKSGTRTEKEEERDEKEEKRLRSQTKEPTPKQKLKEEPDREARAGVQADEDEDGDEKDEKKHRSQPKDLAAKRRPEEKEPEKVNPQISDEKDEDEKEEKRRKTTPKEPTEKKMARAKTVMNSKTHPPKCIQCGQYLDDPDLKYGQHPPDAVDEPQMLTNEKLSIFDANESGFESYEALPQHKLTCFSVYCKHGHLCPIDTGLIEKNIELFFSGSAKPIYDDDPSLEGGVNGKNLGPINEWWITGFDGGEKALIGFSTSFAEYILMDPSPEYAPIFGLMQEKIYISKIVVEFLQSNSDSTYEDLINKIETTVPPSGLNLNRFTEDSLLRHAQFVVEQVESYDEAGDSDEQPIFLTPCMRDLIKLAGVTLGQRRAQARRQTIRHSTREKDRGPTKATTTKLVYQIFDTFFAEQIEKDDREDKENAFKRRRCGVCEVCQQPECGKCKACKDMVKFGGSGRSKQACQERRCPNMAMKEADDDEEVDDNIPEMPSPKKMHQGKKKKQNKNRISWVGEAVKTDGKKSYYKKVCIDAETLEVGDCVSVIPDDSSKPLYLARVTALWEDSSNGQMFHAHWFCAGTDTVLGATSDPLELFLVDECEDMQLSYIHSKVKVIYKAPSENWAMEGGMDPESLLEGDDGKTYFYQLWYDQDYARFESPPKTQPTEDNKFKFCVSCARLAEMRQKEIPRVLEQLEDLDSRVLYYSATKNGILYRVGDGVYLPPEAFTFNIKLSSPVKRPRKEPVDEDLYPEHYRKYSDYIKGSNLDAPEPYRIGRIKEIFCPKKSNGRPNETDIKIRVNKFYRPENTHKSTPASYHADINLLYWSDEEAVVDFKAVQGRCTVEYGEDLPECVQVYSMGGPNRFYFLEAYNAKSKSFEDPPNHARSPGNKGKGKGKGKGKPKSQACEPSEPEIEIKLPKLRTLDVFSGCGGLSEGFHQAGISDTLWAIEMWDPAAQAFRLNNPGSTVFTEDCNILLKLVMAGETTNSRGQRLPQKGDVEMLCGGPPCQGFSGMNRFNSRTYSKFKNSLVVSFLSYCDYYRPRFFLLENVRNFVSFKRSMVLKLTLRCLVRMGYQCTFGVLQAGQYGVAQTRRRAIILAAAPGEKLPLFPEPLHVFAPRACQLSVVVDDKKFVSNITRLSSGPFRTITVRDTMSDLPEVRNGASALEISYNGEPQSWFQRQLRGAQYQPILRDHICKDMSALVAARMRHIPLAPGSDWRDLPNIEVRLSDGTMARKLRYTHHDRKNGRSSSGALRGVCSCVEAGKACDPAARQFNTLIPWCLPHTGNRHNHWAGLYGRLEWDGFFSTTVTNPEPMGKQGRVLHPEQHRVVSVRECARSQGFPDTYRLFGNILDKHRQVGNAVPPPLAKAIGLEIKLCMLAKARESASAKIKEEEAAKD

On to `CN(CC(=O)NC(CO)CO)c1nc(SC(C(N)=O)c2ccccc2)c(C#N)c(C2CC2)c1C#N` (stereo not shown) [Example 639, 2-((6-((2-amino-2-oxo-1-phenylethyl)thio)-3,5-dicyano-4-cyclopropylpyridin-2-yl)(methyl)amino)-N-(1,3-dihydroxypropan-2-yl)acetamide], for which, at DNMT1 (setting [2]), the “DNMT1 BioChemical (pIC50 category)” value is “D (Category D: ≥6.5)”. Also, the EC50 in experiment [1] is 1000 to 31600 nM.

In the case of `CCc1c(C#N)c(SC(C(N)=O)c2ccccc2)nc(N2CCC[C@@H](N)C2)c1C#N` (stereo partly drawn) [Example 691, 2-((6-((R)-3-aminopiperidin-1-yl)-3,5-dicyano-4-ethylpyridin-2-yl)thio)-2-phenylacetamide], the “DNMT1 BioChemical (pIC50 category)” value at DNMT1 (setting [2]) is given as “D (Category D: ≥6.5)”. The EC50 in experiment [1] is 1000 to 31600 nM.

Take `CCc1c(C#N)c(SC(C(N)=O)c2ccccc2)nc(N2CCC(NCc3ccc(F)cc3)CC2)c1C#N` (stereo not shown) [Example 474, 2-((3,5-dicyano-4-ethyl-6-(4-((4-fluorobenzyl)amino)piperidin-1-yl)pyridin-2-yl)thio)-2-phenylacetamide]: on DNMT1 (setting [2]), the “DNMT1 BioChemical (pIC50 category)” value is given as “D (Category D: ≥6.5)”. The EC50 in experiment [1] was under 316 nM.

On to `CCc1c(C#N)c(SC(C(N)=O)c2ccccc2)nc(N2CCN(C(C)(C)CO)CC2)c1C#N` (stereo not shown) [Example 189], for which the IC50 on DNMT1 (setting [3]) is 316 to 1000 nM. Moreover, in experiment [1], the EC50 is 316 to 1000 nM.

As to `CNc1c(C#N)c(SCc2ccc(CNC(C)=O)cc2)nc(N2CCCN(C)CC2)c1C#N` [Example 91, N-(4-(((3,5-Dicyano-6-(4-methyl-1,4-diazepan-1-yl)-4-(methylamino)pyridin-2-yl)thio)methyl)benzyl)acetamide], the IC50 at DNMT1 (setting [3]) was 316 to 1000 nM. Further, the EC50 in experiment [1] is 1000 to 31600 nM.

Take `CCc1c(C#N)c(SC(C(N)=O)c2ccccc2)nc(N2CCC(NCCOC)C(F)C2)c1C#N` (stereo not shown) [Example 510, 2((3,5-dicyano-4-ethyl-6-(3-fluoro-4-((2-methoxyethyl)amino)piperidin-1-yl)pyridin-2-yl)thio)-2-phenylacetamide]: at DNMT1 (setting [2]), the “DNMT1 BioChemical (pIC50 category)” value is on record as “D (Category D: ≥6.5)”. Moreover, the EC50 in experiment [1] is under 316 nM.

`CCc1c(C#N)c(SC(C(N)=O)c2ccc(C)cn2)nc(N2CCCN(C)CC2)c1C#N` (stereo not shown) [Example 205, 2-((3,5-Dicyano-4-ethyl-6-(4-methyl-1,4-diazepan-1-yl)pyridin-2-yl)thio)-2-(5-methylpyridin-2-yl)acetamide]: the “DNMT1 BioChemical (pIC50 category)” value on DNMT1 (setting [2]) was “D (Category D: ≥6.5)”. Moreover, the EC50 in experiment [1] was under 316 nM.

Consider `CCc1c(C#N)c(SC(C(N)=O)c2ccccc2)nc(N2CCC(NC(=O)OC(C)(C)C)CC2)c1C#N` (stereo not shown) [Example 328, tert-Butyl (1-(6-((2-amino-2-oxo-1-phenylethyl)thio)-3,5-dicyano-4-ethylpyridin-2-yl)piperidin-4-yl)carbamate], for which the IC50 at DNMT1 (setting [3]) is 1000 to 31600 nM. Further, the EC50 in experiment [1] was 316 to 1000 nM.

With `CCc1c(C#N)c(SC(C(N)=O)c2ccccc2)nc(N2CCC(F)(F)CC2)c1C#N` (stereo not shown) [Example 133, 2-((3,5-Dicyano-6-(4,4-difluoropiperidin-1-yl)-4-ethylpyridin-2-yl)thio)-2-phenylacetamide], the IC50 at DNMT1 (setting [3]) was 1000 to 31600 nM; at DNMT1 (breaklight assay and/or SPA assay, repeated experimental runs, read-out: average pIC50 against DNMT1 (converted)), at least 1000 nM. Besides, the EC50 in experiment [1] is 1000 to 31600 nM.

For the compound `CCc1c(C#N)c(SC(C(N)=O)c2ccc(C(F)(F)F)cc2)nc(N2CCC(N)CC2)c1C#N` (stereo not shown) [Example 410, 2-((6-(4-aminopiperidin-1-yl)-3,5-dicyano-4-ethylpyridin-2-yl)thio)-2-(4-(trifluoromethyl)phenyl)acetamide], the “DNMT1 BioChemical (pIC50 category)” value on DNMT1 (setting [2]) is given as “D (Category D: ≥6.5)”. For the same compound, the EC50 in experiment [1] is 316 to 1000 nM.

With `CCc1c(C#N)c(SC(C(N)=O)c2ccccc2)nc(N2CCC[C@H](NCC(F)F)C2)c1C#N` (stereo partly drawn) [Example 690, 2-((3,5-dicyano-6-((S)-3-((2,2-difluoroethyl)amino)piperidin-1-yl)-4-ethylpyridin-2-yl)thio)-2-phenylacetamide], the “DNMT1 BioChemical (pIC50 category)” value on DNMT1 (setting [2]) is “D (Category D: ≥6.5)”. Further, the EC50 in experiment [1] is 1000 to 31600 nM.

As for `CCc1c(C#N)c(SC(C(N)=O)c2ccccc2)nc(N(C)CCC(N)=O)c1C#N` (stereo not shown) [Example 230, 3-((6-(2-Amino-2-oxo-1-phenylethylthio)-3,5-dicyano-4-ethylpyridin-2-yl)(methyl)amino)propanamide], on DNMT1 (setting [3]), the IC50 was 316 to 1000 nM. The EC50 in experiment [1] is 1000 to 31600 nM.

Take `CCc1c(C#N)c(SC(C(N)=O)c2ccccc2)nc(N(C)Cc2n[nH]c(=O)[nH]2)c1C#N` (stereo not shown) [Example 340, 2-((3,5-Dicyano-4-ethyl-6-(methyl((5-oxo-4,5-dihydro-1H-1,2,4-triazol-3-yl)methyl)amino)pyridin-2-yl)thio)-2-phenylacetamide]: the “DNMT1 BioChemical (pIC50 category)” value on DNMT1 (setting [2]) was “D (Category D: ≥6.5)”. Moreover, the EC50 in experiment [1] is 1000 to 31600 nM.

For the compound `CCc1c(C#N)c(SC(C(N)=O)c2ccccc2)nc(N2CCC(N)C(F)(F)C2)c1C#N` (stereo not shown) [Example 382, 2-((6-(4-Amino-3,3-difluoropiperidin-1-yl)-3,5-dicyano-4-ethylpyridin-2-yl)thio)-2-phenylacetamide], the “DNMT1 BioChemical (pIC50 category)” value on DNMT1 (setting [2]) is “D (Category D: ≥6.5)”. For the same compound, the EC50 in experiment [1] is under 316 nM.

For `C[C@H](N)C(=O)NC1CCN(c2nc(SC(C(N)=O)c3ccccc3)c(C#N)c(C3CC3)c2C#N)CC1` (stereo partly drawn) [Example 655, (2S)-2-amino-N-(1-(6-((2-amino-2-oxo-1-phenylethyl)thio)-3,5-dicyano-4-cyclopropylpyridin-2-yl)piperidin-4-yl)propanamide], at DNMT1 (setting [2]), the “DNMT1 BioChemical (pIC50 category)” value is listed as “D (Category D: ≥6.5)”. Further, the EC50 in experiment [1] was 316 to 1000 nM.

`CCc1c(C#N)c(SCc2ccc(CNC(C)=O)cc2)nc(N2CCC(N)CC2)c1C#N` [Example 156, N-(4-(((6-(4-Aminopiperidin-1-yl)-3,5-dicyano-4-ethylpyridin-2-yl)thio)methyl)benzyl)acetamide, Trifluoroacetic Acid Salt]: on DNMT1 (setting [2]), the “DNMT1 BioChemical (pIC50 category)” value is recorded as “D (Category D: ≥6.5)”. For the same compound, in experiment [1], the EC50 was 316 to 1000 nM.

As to `CCc1c(C#N)c(S[C@@H](C(N)=O)c2ccccc2)nc(N2CCC(O)(CN)C2)c1C#N.Cl` (stereo in doubt) [Example 423, (R)-2-((6-((R)-3-(aminomethyl)-3-hydroxypyrrolidin-1-yl)-3,5-dicyano-4-ethylpyridin-2-yl)thio)-2-phenylacetamide hydrochloride], the “DNMT1 BioChemical (pIC50 category)” value at DNMT1 (setting [2]) is on record as “D (Category D: ≥6.5)”. Moreover, the “EPC ELISA (pEC50 category)” value in experiment [1] is given as “C (Category C: 6.0 ≤ x < 6.5)”.

Turning to `CCc1c(C#N)c(SC(C(N)=O)c2ccc(F)cc2)nc(N(C)C)c1C#N` (stereo not shown) [Example 198, 2-((3,5-Dicyano-6-(dimethylamino)-4-ethylpyridin-2-yl)thio)-2-(4-fluorophenyl)acetamide], the “DNMT1 BioChemical (pIC50 category)” value at DNMT1 (setting [2]) is reported as “D (Category D: ≥6.5)”. In addition, in experiment [1], the EC50 is 316 to 1000 nM.

For the compound `CCc1c(C#N)c(SC(C(N)=O)c2ccccc2)nc(N2CC[C@@](F)(CN)C2)c1C#N` (stereo partly drawn) [Example 632, 2-((6-((R)-3-(aminomethyl)-3-fluoropyrrolidin-1-yl)-3,5-dicyano-4-ethylpyridin-2-yl)thio)-2-phenylacetamide], the “DNMT1 BioChemical (pIC50 category)” value at DNMT1 (setting [2]) is “D (Category D: ≥6.5)”. In addition, in experiment [1], the EC50 is 1000 to 31600 nM.

As to `CCc1c(C#N)c(SC(C(N)=O)c2ccccc2)nc(N2CC[C@@H](N(C)C)C2)c1C#N` (stereo partly drawn) [Example 536, 2-((3,5-dicyano-6-((R)-3-(dimethylamino)pyrrolidin-1-yl)-4-ethylpyridin-2-yl)thio)-2-phenylacetamide], the “DNMT1 BioChemical (pIC50 category)” value at DNMT1 (setting [2]) is reported as “D (Category D: ≥6.5)”. The EC50 in experiment [1] was 316 to 1000 nM.

In the case of `CCc1c(C#N)c(SCc2ccc(CNC(C)=O)cc2)nc(N(C)CCOC(=O)[C@@H](N)C(C)C)c1C#N` [Example 267], at DNMT1 (setting [3]), the IC50 is 1000 to 31600 nM. In addition, the EC50 in experiment [1] was 1000 to 31600 nM.

For the compound `CCc1c(C#N)c(SC(C(N)=O)c2ccccc2)nc(N2CCC(=O)N(C)CC2)c1C#N` (stereo not shown) [Example 111, 2-{[3,5-Dicyano-4-ethyl-6-(4-methyl-5-oxo-1,4-diazepan-1-yl)pyridin-2-yl]sulfanyl}-2-phenylacetamide], the IC50 on DNMT1 (setting [3]) is 316 to 1000 nM. Besides, the EC50 in experiment [1] is under 316 nM.

As for `CCc1c(C#N)c(SC(C(N)=O)c2ccccc2)nc(N2CCC(O)C2)c1C#N` (stereo not shown) [Example 370, 2-((3,5-Dicyano-4-ethyl-6-(3-hydroxypyrrolidin-1-yl)pyridin-2-yl)thio)-2-phenylacetamide], the IC50 at DNMT1 (setting [3]) was 316 to 1000 nM. Further, the EC50 in experiment [1] is 1000 to 31600 nM.

For `CCc1c(C#N)c(SC(C(N)=O)c2ccccc2)nc(N2CCC(NC3CC3)CC2)c1C#N` (stereo not shown) [Example 552, 2-((3,5-dicyano-6-(4-(cyclopropylamino)piperidin-1-yl)-4-ethylpyridin-2-yl)thio)-2-phenylacetamide], the “DNMT1 BioChemical (pIC50 category)” value at DNMT1 (setting [2]) is “D (Category D: ≥6.5)”. Besides, in experiment [1], the EC50 was under 316 nM.

For `CCc1c(C#N)c(SC(C(N)=O)c2ccccc2)nc(N2CCN(Cc3ccoc3)CC2)c1C#N` (stereo not shown) [Example 200, 2-((3,5-Dicyano-4-ethyl-6-(4-(furan-3-ylmethyl)piperazin-1-yl)pyridin-2-yl)thio)-2-phenylacetamide], on DNMT1 (setting [3]), the IC50 was 316 to 1000 nM. Moreover, the EC50 in experiment [1] is 1000 to 31600 nM.

In the case of `CCc1c(C#N)c(SC(C(N)=O)c2ccccc2)nc(N(C)CCN(C)CC)c1C#N` (stereo not shown) [Example 483, 2-(3,5-dicyano-4-ethyl-6-((2-(ethyl(methyl)amino)ethyl)(methyl)amino)pyridin-2-ylthio)-2-phenylacetamide], the “DNMT1 BioChemical (pIC50 category)” value on DNMT1 (setting [2]) was “D (Category D: ≥6.5)”. Moreover, the EC50 in experiment [1] was under 316 nM.

Regarding `CCc1c(C#N)c(SC(C(N)=O)c2ccnc(F)c2)nc(N2CCCN(C)CC2)c1C#N` (stereo not shown) [Example 239, 2-((3,5-Dicyano-4-ethyl-6-(4-methyl-1,4-diazepan-1-yl)pyridin-2-yl)thio)-2-(2-fluoropyridin-4-yl)acetamide], the IC50 on DNMT1 (setting [3]) is 1000 to 31600 nM. The EC50 in experiment [1] was over 31600 nM.

The values are drawn from patent publication US10975056B2 (GlaxoSmithKline Intellectual Property Development Limited, priority 2016, dated 2021).
